Consider 4 molecules from article PMC4467147, “Identification of epipolythiodioxopiperazines HDN-1 and chaetocin as novel inhibitor of heat shock protein 90” (Oncotarget, 2015).

In general, inhibition refers to the change of the read-out against control, counted positive when it falls.

In one test the target is T1, full length Hsp90α (Homo sapiens, UniProt P07900).
T1 construct: For full length Hsp90α, Hsp90α was coupled to the surface of a GLH sensor chip using amine coupling
The experiment in a line: SPR binding to full-length Hsp90α immobilized on sensor chip. As to conditions: 25°C, 1:1 Langmuir model, read-out: dissociation constant (Kd) for full-length Hsp90α. The procedure:
(§1) SPR analysis was carried out with a ProteOn XPR36 instrument (Bio-Rad) or ForteBio's Octet RED96 to determine binding of various molecules to full length Hsp90α or C-terminal Hsp90α. For full length Hsp90α, Hsp90α was coupled to the surface of a GLH sensor chip using amine coupling. The coupling has been performed according to the manufacturer's instructions. Binding experiments were performed with multiple concentrations of HDN-1 and chaetocin running over the surface of the chip at 25°C, at a constant flow rate of 30 μl/min in PBS-T (10 mM Phosphate, 150 mM NaCl, pH 7.4 and 0.005% Tween20 [v/v]). The sensor chip surface was regenerated using 0.85% H3PO4. Changes in mass due to the binding response were recorded as resonance units (RU). To obtain the dissociation constant (Kd), these responses were fit to a 1:1 Langmuir binding model by nonlinear regression using the BiaEvaluation 4.1 software program. For interplay of HDN-1 with other molecules, 50 μM 17-AAG, 50 μM novobiocin, or 100 μM ATP was injected into Hsp90α-immobilized chip and the RU values were recorded in succession for indicated time, then these compounds were replaced by 50 μM HDN-1, and RU values were recorded unceasingly. Similar experiments were conversely performed and RU values were recorded. […] Binding of samples (31.25–500 μM) to coated and uncoated reference sensors was measured over 60 s. […]

The test system of a further test is Hsp90 client proteins. The experiment in a line: Western blotting of Hsp90 client proteins and Hsp70 in NSCLC cells. It is filed as cell-based, human. The following applies: for effect on level of SUV39H1: 24 h; for effect on Hsp90 client protein levels (EGFR, Akt, Cyclin D1 etc.): NSCLC cells. The procedure: Cells were incubated with HDN-1 at indicated concentrations and time, then washed with PBS twice, disrupted on ice for 30 min in loading buffer, and boiled for 10 min. Protein concentration was determined with BCA reagent. Equal amounts of protein in cell lysates were separated by SDS-PAGE, transferred to membranes, immunoblotted with indicated primary and secondary antibodies, and detected by chemiluminescence with the enhanced chemiluminescence detection reagents (PIERCE). The antibodies of following proteins were used: EGFR, phosphorylated EGFR (Tyr1068), Akt, phosphorylated Akt (Ser473), MAPK, phosphorylated MAPK (Thr202/Tyr204), ubiquitin, Hsp70, β-Actin; Abl, Stat3, phosphorylated Stat3 (Ser727), Raf-1, cyclin D1. For immunoprecipitation assay, cell lysate protein was incubated overnight at 4°C with the designated antibody and protein G-Sepharose (Amersham Biosciences) was added overnight while rocking. Precipitates were washed three times with lysis buffer and once with PBS, resuspended in 2 × loading buffer, and resolved by SDS-PAGE followed by immunoblot analysis.
(In general: Immunoblotting shows a protein as a band on a membrane.)

In test [1] the target is T2, C-terminal Hsp90 fragment (535–732aa) of human Hsp90α (Homo sapiens, UniProt P07900).
T2 construct: recombinant C-terminal Hsp90 fragment (535–732aa) of human Hsp90α
Briefly: ForteBio Octet binding to biotinylated C-terminal Hsp90α. As to conditions: Octet RED96, read-out: Kd for C-terminus of Hsp90α. The procedure: as §1

Another test addresses T3, Hsp90α (Homo sapiens, UniProt P07900).
T3 construct: For full length Hsp90α, Hsp90α was coupled to the surface of a GLH sensor chip using amine coupling
The experiment in a line: Fluorescence polarization competitive assay, displacement of FITC-GA from Hsp90α. As to conditions: 200 nM FITC-GA, 30 nM Hsp90α; read-out: IC50, effect on the binding of GA to Hsp90. The procedure:
Fluorescence polarization assays were performed under the following conditions: each 96-well plate contained 200 nM FITC-GA, Hsp90α (30 nM), and tested inhibitor (initial stock in DMSO) in a final volume of 100 μl. For each assay, background wells (buffer only), tracer controls (free, FITC-GA only), and bound GA controls (fluorescent GA in the presence of Hsp90) were included on each assay plate. The fraction of tracer bound to Hsp90 was correlated to the mP value and plotted against log10 values of competitor concentrations. The HDN-1 and 17-AAG concentrations at which 50% of bound GA was displaced was obtained by fitting the data. Fluorescence intensity measurements were obtained using a SpectraMax M5 (Molecular Devices, Sunnyvale, CA). The excitation and emission wavelengths were 485 nm and 530 nm, respectively.
In general terms: Polarisation of emitted light reports the rotation of a fluorescent probe.

Test [2] has as its system H1975 cells. The experiment in a line: MTT cell viability assay, H1975. It is filed as cell-based. The following applies: Homo sapiens, NCI-H1975, H1975, 72 h, read-out: IC50 cell proliferation. The procedure:
(§2) A modified tetrazolium salt assay was used to measure the inhibition of cancer cell growth. Cancer cells were plated into a 96-well microtiter plate containing 0.1 ml of growth media/well for 24 h, then were incubated with HDN-1 at indicated concentrations dissolved in DMSO for 72 h. 3-(4,5-Dimethylthiazol-2-yl)-2,5- diphenyltetrazoliumbromide (MTT) was added to each well of a 96-well plate. After 4 h incubation, the formazan product was dissolved and quantitated spectrophotometrically at a wavelength of 560 nm. Percent viability of each sample was calculated from the A560 values as follows: % viability = (A560 nm sample / A560 nm DMSO-treated cells × 100). The IC50 was defined as the concentration that gave rise to 50% inhibition of cell viability.
In general terms: Tetrazolium dyes change colour on reduction, which living cells bring about.

The test system of a further test is A549 cells. Briefly: MTT cell viability assay, A549. Type of test: cell-based, human. The following applies: A549, 72 h, read-out: IC50 cell proliferation. The procedure:
as §2

Another test relates to HCC827 cells. Briefly: MTT cell viability assay, HCC827. It is filed as cell-based, human. The following applies: HCC827, 72 h, read-out: IC50 cell proliferation. The procedure:
as §2

The subject of test [3] is H1975 cells. The experiment in a line: Drug combination study HDN-1 and 17-AAG, MTT assay, H1975. It is filed as cell-based, human. The following applies: H1975, 72 h. The procedure: as §2
H1975 cell were seeded in triplicate in 96-well plates and treated with HDN-1 or 17-AAG alone or with the combination of HDN-1 and 17-AAG at the indicated doses. MTT assays were performed after 72 h of treatment. The Q (value) was calculated according to Jin's formula: Q = Ea+b/(Ea+Eb−Ea × Eb). Ea+b represented the inhibition rate of drug combination, Ea and Eb represented the inhibition rate of drug A and B alone, respectively. Q (value) = 0.85–1.15 stands for additivity, Q (value) > 1.15–2.0 stands for synergism, and Q (value) < 0.85–0.55 stands for antagonism.

Another test deals with Hsp90α ATPase (Homo sapiens, UniProt P07900). Briefly: Hsp90α ATPase activity. Type of test: biochemical. The following applies: data not shown.
Test [4] deals with C-terminus of ATP binding site (660–680 aa) of Hsp90α. Also noted: method as in PMID 11751878. As to conditions: read-out: binding affinity to C-terminus of ATP binding site of Hsp90α; cited from earlier work.

Molecules are shown by their SMILES. Like-named read-outs stand apart in the source and are kept apart here.

With `CN1C(=O)[C@@]23C[C@]4([C@]56C[C@@]78SS[C@@](CO)(C(=O)N7[C@H]5Nc5ccccc56)N(C)C8=O)c5ccccc5N[C@@H]4N2C(=O)[C@]1(CO)SS3` [chaetocin], the Kd at full length Hsp90α is 16.8 µM. Further, in the test on Hsp90 client proteins (Western blotting), the “effect on level of SUV39H1” value is given as “decline” and the “effect on Hsp90 client protein levels (EGFR, Akt, Cyclin D1 etc.)” value is reported as “degraded client proteins”.
As for `CN1C(=O)[C@]23SSS[C@@]1(CO)C(=O)N2[C@H]1Nc2ccccc2C1(C12c4ccccc4N[C@@H]1N1C(=O)[C@]4(CO)SS[C@]1(C(=O)N4C)[C@H]2O)[C@@H]3O` (stereo partly shown) [HDN-1], the Kd worked out at 14.6 µM on full length Hsp90α and 201 µM in test [1]. The IC50 on Hsp90α was > 10 µM; in the test on H1975 cells [2], 0.22 µM; with A549 cells, 0.54 µM; in the test with A549 cells (Homo sapiens) it was 1.06 µM; with HCC827 cells it was 1.06 µM; with HCC827 cells (Homo sapiens), 0.54 µM. Besides, the inhibition at 0.1 µM in the test with H1975 cells [3] (Homo sapiens, NCI-H1975, single agent 100 nM, read-out: Inhibition Rate Mean) stood at 5.1%. In addition, in the test with H1975 cells [3] (Homo sapiens, NCI-H1975, single agent 200 nM, read-out: Inhibition Rate Mean), the inhibition at 0.2 µM turned out to be 37.1%. Moreover, at Hsp90α ATPase, the “effect on Hsp90α ATPase activity” value was “no effect”. Moreover, the “effect on level of SUV39H1” value in the test with Hsp90 client proteins (Western blotting) is “decline”. Also, the “effect on Hsp70 expression” value with Hsp90 client proteins (H1975, HCC827, A549 cells, Western blotting) is “did not obviously affect”. Moreover, the “effect on HIF-1α” value with Hsp90 client proteins (H1975 and A549 cells, CoCl2-induced hypoxia or 5% CO2 and 2% O2) is recorded as “degraded”. Moreover, in the test with Hsp90 client proteins (Western blotting), the “effect on Hsp90 client protein levels (EGFR, Akt, Cyclin D1 etc.)” value is recorded as “reduced the expression levels”.
Consider `CO[C@@H]1[C@@H](OC(N)=O)[C@@H](O)[C@H](Oc2ccc3c(O)c(NC(=O)c4ccc(O)c(CC=C(C)C)c4)c(=O)oc3c2C)OC1(C)C` [Novobiocin], for which the Kd in test [4] is ~3300 µM.
`C=CCNC1=C2C[C@@H](C)C[C@H](OC)[C@H](O)[C@@H](C)/C=C(\C)[C@H](OC(N)=O)[C@@H](OC)/C=C\C=C(/C)C(=O)NC(=CC1=O)C2=O` [17-AAG]: the “Inhibition Rate Mean” value in the test with H1975 cells [3] (single agent 100 nM) came out at 0.070; with H1975 cells [3] (single agent 200 nM), 0.267; in the test with H1975 cells [3] (single agent 300 nM) it was 0.393.
